{"source": "patent US12350273B2", "about": "“Treatment of SMA” (Hoffmann-La Roche Inc., priority 2017, dated 2025)", "key": {"SMN protein [1]": {"tested_on": "SMN protein", "assay": "SMN protein (HTRF) in brain and quadriceps muscle of SMNΔ7 mice", "format": "in vivo", "description": "(§1) FIG. 1A-FIG. 1D: Increase in SMN Protein Expression In Vivo • HET=heterogygous. • C/C-allele mice and SMNΔ7 mice were treated with RO7034067. One hour after the last dose, brains and quadriceps muscles were collected and levels of SMN protein were assessed by HTRF. FIG. 1A. SMN protein in brains of C/C-allele mice. FIG. 1B. SMN protein in brains of SMNΔ7 mice. FIG. 1C. SMN protein in quadriceps muscle of C/C-allele mice. FIG. 1D. SMN protein in quadriceps muscle of SMNΔ7 mice. Data represent means±SEM of 5-6 animals per group and are expressed as fold change vs. vehicle-treated controls. *=p<0.05, **=p<0.01, ***=p<0.001 vs. untreated controls.\n(§2) Adult C/C-allele mice were treated for 10 days with vehicle or RO7034067 (1, 3 or 10 mg/kg per os [PO], daily), and PND3 SMNΔ7 mice were treated for 7 days with vehicle or RO7034067 (0.1, 0.3, 1 or 3 mg/kg intraperitoneal [IP], daily). […] In SMNΔ7 mice, the SMN protein increase was only partial in both brain and muscle, reaching approximately 43% (brain) and 55% (muscle) of protein levels in heterozygous mice."}, "Cynomolgus monkey iPSCs": {"tested_on": "Cynomolgus monkey iPSCs", "assay": "Cell cycle analysis of Cynomolgus monkey iPSCs (flow cytometry)", "format": "cell-based", "details": "for percentage of events in G1 phase, mean / percentage of events in G2 phase, mean / percentage of events in S phase, mean: Cynomolgus monkey iPSCs, 24 h", "description": "For the analysis of the cell cycle, monkey stem cells were detached with Accutase (Stem Cell Technologies) and plated at 15000 cells/cm2 in 6 well plates coated with Matrigel (BD Biosciences) in MT medium supplemented with 10 ng/ml ActivinA, 15 ng/ml FGF2, and 10 μM Rock inhibitor. Cells were expanded for 1 day and then synchronized by starvation for 7 h in MT medium without supplements FGF2 and ActivinA. Before flow cytometry, cells were incubated for 24 h with fresh MT medium containing supplements FGF2 and ActivinA and test items at 80 nM, 400 nM, and 2000 nM or 30 nM rapamycin as positive control to arrest cells in G1 phase. Human stem cells were detached with Accutase (Stem Cell Technologies) and plated at 40000 cells/cm2 in 6 well plates coated with Matrigel (BD Biosciences) in mTeSR1 supplemented with 10 μM Rock Inhibitor Y-27632 (Sigma-Aldrich). Cells were expanded for 3 days with daily medium change. Since human iPSCs lose their properties during starvation by growth factor withdrawal, stem cells were synchronized with 200 ng/ml Nocodazole (Sigma-Aldrich) for 5 h and washed subsequently 2 times with mTesR1 Medium. Before flow cytometry, cells were incubated for 24 h with fresh TesR1 medium containing test items at 80 nM, 400 nM, and 2000 nM or 30 nM rapamycin as positive control to arrest cells in G1 phase.\nFor cell cycle analysis, human iPSCs were washed with PBS, detached with Accutase (Stem Cell Technologies) and collected by centrifugation. Cells were stained for 1 h at 37° C. with 600 ul of 7 AAD/Saponin/RNAse mix ([…] 7 AAD (#559925, BD), 50 μg/ml RNase, and 0.03% Saponin dissolved in FACS buffer (PBS, 5% FBS, 10 mM Hepes)). Cynomolgus monkey iPSCs were washed with PBS, detached with Accutase (Stem Cell Technologies) and collected by centrifugation. Cells were stained for 30 min at 37° C. in 300 ul standard MT medium (with FGF2 and ActivinA) containing 1 ul Vybrant Dye Cycle Violet Stain (#V35003, 1000× stock, Invitrogen) per ml medium. Additionally 2 ul 7 AAD (50 μg/ml 7 AAD) were added without permeabilization to label dead cells; cells were incubated for 10 min at 37° C. Flow cytometry analysis was performed using a Canto II cytometer (BD Biosciences) and data were analysed with the FlowJo software."}, "retina": {"tested_on": "retina", "assay": "39-week monkey toxicity study: retina effects (ERG, sdOCT, histopathology), NOAEL", "details": "for ERG B-wave amplitude, left eye / ERG B-wave amplitude, right eye: Animal 0114 (female, 7.5/5 mg/kg/day)"}, "[2]": {"assay": "39-week monkey toxicity study: retina effects (ERG, sdOCT, histopathology), NOAEL", "details": "cynomolgus monkey; for AUC(0-t): plasma"}, "SMN protein [3]": {"tested_on": "SMN protein", "assay": "SMN protein (HTRF) in brain and quadriceps muscle of C/C-allele mice", "format": "in vivo", "description": "as §1, §2"}}, "data": [{"molecule": "Cc1cn2nc(-c3cc(=O)n4cc(N5CCNC6(CC6)C5)ccc4n3)cc(C)c2n1", "note": "[RO7034067, 7-(4,7-diazaspiro[2.5]octan-7-yl)-2-(2,8-dimethylimidazo[1,2-b]pyridazin-6-yl)pyrido[1,2-a]pyrimidin-4-one]", "values": [{"measurement": "SMN protein in brain as share of protein levels in heterozygous mice", "setting": "SMN protein [1]; SMNΔ7 mice, brain", "result": "approximately 43%"}, {"measurement": "SMN protein in muscle as share of protein levels in heterozygous mice", "setting": "SMN protein [1]; SMNΔ7 mice, muscle", "result": "~55", "unit": "%"}, {"measurement": "SMN protein levels in brain and muscle tissue, maximum effect", "setting": "SMN protein [1]; neonatal SMNΔ7 mice, 1-3 mg/kg IP daily, 7 days", "result": "2-3 fold"}, {"measurement": "increase in SMN protein possible", "setting": "SMN protein [1]; severe SMNΔ7 mouse model", "result": "more than 100%"}, {"measurement": "percentage of events in G1 phase, mean", "setting": "Cynomolgus monkey iPSCs; 80 nM", "result": 33.8, "unit": "%"}, {"measurement": "percentage of events in G2 phase, mean", "setting": "Cynomolgus monkey iPSCs; 80 nM", "result": 52.2, "unit": "%"}, {"measurement": "percentage of events in S phase, mean", "setting": "Cynomolgus monkey iPSCs; 80 nM", "result": 14.0, "unit": "%"}, {"measurement": "percentage of events in G1 phase, mean", "setting": "Cynomolgus monkey iPSCs; 400 nM", "result": 30.3, "unit": "%"}, {"measurement": "percentage of events in G2 phase, mean", "setting": "Cynomolgus monkey iPSCs; 400 nM", "result": 55.8, "unit": "%"}, {"measurement": "percentage of events in S phase, mean", "setting": "Cynomolgus monkey iPSCs; 400 nM", "result": 14.0, "unit": "%"}, {"measurement": "percentage of events in G1 phase, mean", "setting": "Cynomolgus monkey iPSCs; 2000 nM", "result": 25.3, "unit": "%"}, {"measurement": "percentage of events in G2 phase, mean", "setting": "Cynomolgus monkey iPSCs; 2000 nM", "result": 61.3, "unit": "%"}, {"measurement": "percentage of events in S phase, mean", "setting": "Cynomolgus monkey iPSCs; 2000 nM", "result": 13.4, "unit": "%"}, {"measurement": "effect on cell cycle", "setting": "Cynomolgus monkey iPSCs; monkey iPSCs, concentration-dependent", "result": "cell cycle arrest in G2 phase"}, {"measurement": "animals noted with ERG deficits", "setting": "retina; 1.5 mg/kg/day", "result": "No animals"}, {"measurement": "retinal appearance by sdOCT", "setting": "retina; 1.5 mg/kg/day", "result": "retained a normal retinal appearance"}, {"measurement": "AUC0-24h exposure free of retina effects (NOEL/NOAEL of the retina finding), females", "setting": "retina; 1.5 mg/kg/day, 39 weeks, females", "result": 2060, "unit": "ng·h/mL"}, {"measurement": "AUC0-24h exposure free of retina effects (NOEL/NOAEL of the retina finding), males", "setting": "retina; 1.5 mg/kg/day, 39 weeks, males", "result": 1870, "unit": "ng·h/mL"}, {"measurement": "animals with adverse histopathologic degeneration in mid to peripheral retina", "setting": "retina; 3 mg/kg/day", "result": "one female"}, {"measurement": "animals with adverse histopathologic degeneration in mid to peripheral retina", "setting": "retina; 7.5/5 mg/kg/day", "result": "two animals/sex"}, {"measurement": "ERG finding in several animals", "setting": "retina; 7.5/5 mg/kg/day, Week 20 of the dosing phase", "result": "markedly depressed scotopic and photopic ERGs"}, {"measurement": "primary finding of 39-week administration", "setting": "retina; 7.5/5 mg/kg/day, correlated with nonadverse epidermal hyperplasia", "result": "clinical signs in the skin"}, {"measurement": "reversibility of retinal degeneration (histopathology)", "setting": "retina; 22-week recovery period", "result": "not reversible during the recovery period"}, {"measurement": "recovery of MMD and depressed ERG", "setting": "retina; 22-week recovery phase", "result": "almost fully recovered"}, {"measurement": "ERG B-wave amplitude, left eye", "setting": "retina; recovery Week 22", "result": 52.7, "unit": "mcV"}, {"measurement": "ERG B-wave amplitude, right eye", "setting": "retina; recovery Week 22", "result": 43.4, "unit": "mcV"}, {"measurement": "ERG B-wave amplitude, left eye", "setting": "retina; recovery week 8", "result": 33.5, "unit": "mcV"}, {"measurement": "ERG B-wave amplitude, right eye", "setting": "retina; recovery week 8", "result": 34.1, "unit": "mcV"}, {"measurement": "lowest AUC0-24h exposure at the mid-dose with retina findings", "setting": "retina; animal No. 11", "result": 4540, "unit": "ng·h/mL"}, {"measurement": "lowest AUC0-24h exposure at the mid-dose with retina findings", "setting": "retina; animal No. 109", "result": 4560, "unit": "ng·h/mL"}, {"measurement": "lowest AUC0-24h exposure at the mid-dose with retina findings", "setting": "retina; animal No. 111", "result": 4560, "unit": "ng·h/mL"}, {"measurement": "animals with rod ERGs below the criteria", "setting": "retina; females, 1 mg/kg/day, Week 34", "result": "Two"}, {"measurement": "animals with depressed rod responses (ERG grading)", "setting": "retina; females, 3 mg/kg/day, Week 22", "result": "all three"}, {"measurement": "animals with depressed rod responses (ERG grading)", "setting": "retina; females, 3 mg/kg/day, Week 27", "result": "none"}, {"measurement": "animals with depressed rod responses (ERG grading)", "setting": "retina; females, 3 mg/kg/day, Week 35", "result": "1 of 3"}, {"measurement": "animals with depressed rod responses (ERG grading)", "setting": "retina; females, 7.5/5 mg/kg/day, Week 20", "result": "4 of 5"}, {"measurement": "animals with depressed rod responses (ERG grading)", "setting": "retina; females, 7.5/5 mg/kg/day, Week 26", "result": "2 of 5"}, {"measurement": "animals with depressed rod responses (ERG grading)", "setting": "retina; females, 7.5/5 mg/kg/day, Week 34", "result": "4 of 5"}, {"measurement": "individual AUC0-24h exposure free of effects on the retina", "setting": "retina; individual animals, end of study", "result": "up to 2300 ng·h/mL"}, {"measurement": "ERG finding", "setting": "retina; intermediate and low dose groups (3.0 and 1.5 mg/kg/day), dosing phase", "result": "generally remained within expected limits"}, {"measurement": "animals with rod response below the expected range", "setting": "retina; males, 1 mg/kg/day", "result": "No males"}, {"measurement": "animals with depressed rod responses (ERG grading)", "setting": "retina; males, 3 mg/kg/day, Week 22", "result": "1 of 3"}, {"measurement": "animals with depressed rod responses (ERG grading)", "setting": "retina; males, 3 mg/kg/day, Week 26 or 35", "result": "none"}, {"measurement": "sdOCT finding", "setting": "retina; males, 3 mg/kg/day, Weeks 22, 27 and 35", "result": "minimal/mild retinal disorganization in the periphery"}, {"measurement": "animals with depressed rod responses (ERG grading)", "setting": "retina; males, 7.5/5 mg/kg/day, Week 20", "result": "Four of five"}, {"measurement": "animals with depressed rod responses (ERG grading)", "setting": "retina; males, 7.5/5 mg/kg/day, Week 26", "result": "2 of 5"}, {"measurement": "animals with depressed rod responses (ERG grading)", "setting": "retina; males, 7.5/5 mg/kg/day, Week 34", "result": "5 of 5"}, {"measurement": "NOAEL at 39 weeks", "setting": "[2]; both, in vivo, po", "result": 1.5, "unit": "mg/kg/day"}, {"measurement": "AUC(0-t)", "setting": "[2]; oral", "result": 4260, "unit": "ng·h/mL"}, {"measurement": "AUC(0-t)", "setting": "[2]; female, po, 3 mg/kg/day", "result": 4850, "unit": "ng·h/mL"}, {"measurement": "AUC(0-t)", "setting": "[2]; female, po, 5 mg/kg/day", "result": 6470, "unit": "ng·h/mL"}, {"measurement": "AUC(0-t)", "setting": "[2]; male, po, 3 mg/kg/day", "result": 4880, "unit": "ng·h/mL"}, {"measurement": "AUC(0-t)", "setting": "[2]; male, po, 5 mg/kg/day", "result": 5880, "unit": "ng·h/mL"}, {"measurement": "SMN levels in muscle compared with heterozygous mice", "setting": "SMN protein [3]; C/C-allele mice, 10 mg/kg", "result": "no different from those in heterozygous mice"}, {"measurement": "SMN protein levels in brain and muscle tissue, maximum effect", "setting": "SMN protein [3]; adult C/C-allele mice, 10 mg/kg PO daily, 10 days", "result": "2-3 fold"}]}]}
